Assays:
P110 δ/Pi3K δ = P110 δ/Pi3K δ (Homo sapiens, UniProt O00329); assay: Fluorescent (HTRF) determination of PI3K enzyme activity, δ isoform; format: biochemical; design: inhibition: dose or concentration left out as unconfirmed
From the text: Assay 1: Fluorescent determination of PI3Kinase Kinase enzyme activity
Phosphoinositide 3 kinases (PI3K) belong to a class of lipid kinases that play a critical role in the regulation of several key cellular processes. The PI3K are capable of phosphorylating the 3-hydroxy position of phosphoinositols thereby generating second messengers involved in downstream signalling events. The homogenous time resolved fluorescence (HTRF) assay allows detection of 3,4,5-triphosphate (PIP3) formed as a result of phosphorylation of phosphotidylinositol 4,5-biphosphate (PIP2) by PI3K isoforms such as α, β, γ or δ.
PI3K isoform activity for α, β, γ or δ was determined using a PI3K human HTRF™ Assay Kit (Millipore, Billerica, Mass.) with modifications. All incubations were carried out at room temperature. […] After the initial incubation, 5 μl/well of 400 μM ATP was added and incubated for an additional 30 minutes. Reaction was terminated by adding 5 μl/well stop solution (Millipore, Billerica, Mass.). Five microliters of detection mix (Millipore, Billerica, Mass.) were then added to each well and was incubated for 6-18 h in the dark. […] Data were analyzed using Graphpad Prism (Graphpad software; San Diego Calif.) for IC50 determination. Percent inhibition was calculated based on the values for the blank and enzyme controls.

Sequence of P110 δ/Pi3K δ (O00329 whole entry, canonical isoform): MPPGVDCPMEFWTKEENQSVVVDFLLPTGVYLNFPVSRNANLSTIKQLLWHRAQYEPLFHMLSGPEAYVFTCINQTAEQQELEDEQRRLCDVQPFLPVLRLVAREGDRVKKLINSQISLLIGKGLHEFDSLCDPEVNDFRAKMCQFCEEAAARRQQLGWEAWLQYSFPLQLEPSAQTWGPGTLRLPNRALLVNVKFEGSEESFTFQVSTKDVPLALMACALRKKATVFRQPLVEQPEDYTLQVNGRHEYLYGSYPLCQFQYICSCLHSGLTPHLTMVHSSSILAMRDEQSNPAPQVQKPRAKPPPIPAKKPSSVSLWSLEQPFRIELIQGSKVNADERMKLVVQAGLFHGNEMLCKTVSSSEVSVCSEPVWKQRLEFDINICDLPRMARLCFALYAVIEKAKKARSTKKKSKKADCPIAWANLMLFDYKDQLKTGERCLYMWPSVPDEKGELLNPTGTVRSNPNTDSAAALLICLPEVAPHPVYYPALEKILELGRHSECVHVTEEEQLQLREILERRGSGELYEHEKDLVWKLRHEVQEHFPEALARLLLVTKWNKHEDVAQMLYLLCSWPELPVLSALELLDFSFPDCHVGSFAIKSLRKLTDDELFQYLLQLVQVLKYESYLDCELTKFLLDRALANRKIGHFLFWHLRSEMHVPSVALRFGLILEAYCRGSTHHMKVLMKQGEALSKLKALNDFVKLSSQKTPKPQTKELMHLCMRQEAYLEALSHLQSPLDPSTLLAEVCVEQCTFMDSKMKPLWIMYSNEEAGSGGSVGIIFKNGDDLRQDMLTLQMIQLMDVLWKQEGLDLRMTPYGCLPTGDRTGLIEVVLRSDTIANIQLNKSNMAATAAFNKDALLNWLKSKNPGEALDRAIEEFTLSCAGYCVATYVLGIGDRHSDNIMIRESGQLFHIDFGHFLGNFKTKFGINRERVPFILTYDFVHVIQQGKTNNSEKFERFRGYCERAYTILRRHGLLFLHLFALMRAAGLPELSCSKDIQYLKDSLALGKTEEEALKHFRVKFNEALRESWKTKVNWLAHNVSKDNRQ
Sequence of P110 δ/Pi3K δ (P27986 whole entry partner, canonical isoform): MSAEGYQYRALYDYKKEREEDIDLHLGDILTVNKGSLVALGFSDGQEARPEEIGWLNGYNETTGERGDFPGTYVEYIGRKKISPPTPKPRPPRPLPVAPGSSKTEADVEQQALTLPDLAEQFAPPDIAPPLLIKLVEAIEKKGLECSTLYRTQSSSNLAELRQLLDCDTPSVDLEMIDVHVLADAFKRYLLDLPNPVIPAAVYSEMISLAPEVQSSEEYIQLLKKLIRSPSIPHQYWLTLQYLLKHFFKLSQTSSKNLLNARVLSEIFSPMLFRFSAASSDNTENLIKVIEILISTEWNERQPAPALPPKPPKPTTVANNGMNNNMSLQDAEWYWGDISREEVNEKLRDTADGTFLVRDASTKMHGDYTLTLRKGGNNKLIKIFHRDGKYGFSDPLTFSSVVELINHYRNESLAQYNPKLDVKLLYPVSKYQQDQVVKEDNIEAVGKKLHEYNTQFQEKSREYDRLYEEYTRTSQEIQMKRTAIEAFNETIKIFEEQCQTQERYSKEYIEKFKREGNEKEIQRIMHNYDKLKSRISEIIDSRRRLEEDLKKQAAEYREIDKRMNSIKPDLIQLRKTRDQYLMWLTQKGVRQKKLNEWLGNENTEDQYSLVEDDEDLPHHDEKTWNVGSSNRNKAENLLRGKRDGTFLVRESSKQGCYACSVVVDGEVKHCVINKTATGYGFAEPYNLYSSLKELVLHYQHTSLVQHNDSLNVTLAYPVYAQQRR

melting point [°C]	inhibition at 1 µM (P110 δ/Pi3K δ) [%]	inhibition (P110 δ/Pi3K δ) [%]	IC50 (P110 δ/Pi3K δ; read-out: P110 δ/ Pi3K δ IC 50 nM) [nM]	SMILES
232 to 236	–	–	–	Cl.O=c1c(-c2ccc(F)cc2)c(CN2CCOCC2)oc2ccc(Br)cc12
229 to 230	–	–	–	Cl.O=c1c(-c2ccccc2)c(CN2CCOCC2)oc2ccc(Br)cc12
173 to 175	< 50	–	–	Nc1ncnc2c1ncn2Cc1oc2ccccc2c(=O)c1-c1ccccc1 [Example 3, 2-[(6-Amino-9H-purin-9-yl)methyl]-3-phenyl-4H-chromen-4-one]
208 to 209	< 50	–	–	Cl.O=c1c(-c2ccccc2)c(CN2CCOCC2)oc2ccccc12 [Example 4a, 2-(Morpholinomethyl)-3-phenyl-4H-chromen-4-one hydrochloride]
192 to 197	–	–	–	O=c1c(-c2ccccc2)c(Cn2cnc3ccccc32)oc2ccc(Br)cc12 [Example 5, 2-[(1H-Benzo[d]imidazol-1-yl)methyl]-6-bromo-3-phenyl-4H-chromen-4-one]
176 to 179	< 50	–	–	Cc1cccc2c1ncn2Cc1oc2ccc(Br)cc2c(=O)c1-c1ccccc1 [Example 6, 6-Bromo-2-[(4-methyl-1H-benzo[d]imidazol-1-yl)methyl]-3-phenyl-4H-chromen-4-one]
186 to 191	< 50	–	–	O=c1c(-c2ccccc2)c(Cn2cnc3ccccc32)oc2ccccc12 [Example 7, 2-[(1H-benzo[d]imidazol-1-yl)methyl]-3-phenyl-4H-chromen-4-one]
204 to 208	–	–	–	Cc1cccc2c1ncn2Cc1oc2ccccc2c(=O)c1-c1ccccc1 [Example 8, 2-[(4-methyl-1H-benzo[d]imidazol-1-yl)methyl]-3-phenyl-4H-chromen-4-one]
187 to 190	< 50	–	–	O=c1c(-c2ccccc2)c(Cn2cnc3c(Cl)ncnc32)oc2ccccc12 [Example 9, 2-[(6-Chloro-9H-purin-9-yl)methyl]-3-phenyl-4H-chromen-4-one]
208 to 209	< 50	–	–	O=c1c(-c2ccccc2)c(CSc2ncnc3[nH]cnc23)oc2ccccc12 [Example 11, 2-((9H-Purin-6-ylthio)methyl)-3-phenyl-4H-chromen-4-one]
168 to 171	< 50	–	–	O=c1c(-c2ccccc2)c(Cn2ccnc2)oc2ccccc12 [Example 12, 2-[(1H-Imidazol-1-yl)methyl]-3-phenyl-4H-chromen-4-one]
214 to 218	< 50	–	–	O=c1c(-c2ccccc2)c(CSc2ncnc3[nH]cnc23)oc2ccc(Br)cc12 [Example 13, 2-[(9H-Purin-6-ylthio)methyl]-6-bromo-3-phenyl-4H-chromen-4-one]
236 to 240	< 50	–	–	Nc1ncnc2c1cnn2Cc1oc2ccc(Br)cc2c(=O)c1-c1ccccc1 [Example 14, 2-((4-Amino-1H-pyrazolo[3,4-d]pyrimidin-1-yl)methyl)-6-bromo-3-phenyl-4H-chromen-4-one]
238 to 242	< 50	–	–	Nc1ncnc2c1ncn2Cc1oc2ccc(Br)cc2c(=O)c1-c1ccc(F)cc1 [Example 15, 2-[(6-Amino-9H-purin-9-yl)methyl]-6-bromo-3-(4-fluorophenyl)-4H-chromen-4-one]
212 to 216	< 50	–	–	Nc1ncnc2c1ncn2Cc1oc2ccccc2c(=O)c1-c1ccc(F)cc1 [Example 16, 2-[(6-Amino-9H-purin-9-yl)methyl]-3-(4-fluorophenyl)-4H-chromen-4-one]
225 to 229	< 50	–	–	Cl.O=c1c(-c2ccc(F)cc2)c(CN2CCOCC2)oc2ccccc12 [Example 18a, 3-(4-fluorophenyl)-2-(morpholinomethyl)-4H-chromen-4-one hydrochloride]
252 to 255	–	–	–	Cc1ccccc1-c1c(Cn2cnc3c(N)ncnc32)oc2ccc(Br)cc2c1=O [Example 19, 2-[(6-Amino-9H-purin-9-yl)methyl]-6-bromo-3-o-tolyl-4H-chromen-4-one]

melting point [°C]	inhibition at 1 µM (P110 δ/Pi3K δ) [%]	inhibition (P110 δ/Pi3K δ) [%]	IC50 (P110 δ/Pi3K δ; read-out: P110 δ/ Pi3K δ IC 50 nM) [nM]	SMILES
253 to 255	< 50	–	–	Cn1c(=O)c2c(ncn2Cc2oc3ccc(Br)cc3c(=O)c2-c2ccccc2)n(C)c1=O [Example 20, 7-[(6-Bromo-4-oxo-3-phenyl-4H-chromen-2-yl)methyl]-1,3-dimethyl-1H-purine-2,6(3H,7H)-dione]
230 to 231	< 50	–	–	CC(c1oc2ccc(Br)cc2c(=O)c1-c1ccccc1)n1cnc2c(N)ncnc21 (stereo not drawn) [Example 21, 2-(1-(6-Amino-9H-purin-9-yl)ethyl)-6-bromo-3-phenyl-4H-chromen-4-one]
234 to 237	< 50	–	–	CC(Sc1ncnc2[nH]cnc12)c1oc2ccc(Br)cc2c(=O)c1-c1ccccc1 (stereo not drawn) [Example 22, 2-(1-(9H-Purin-6-ylthio)ethyl)-6-bromo-3-phenyl-4H-chromen-4-one]
151 to 154	< 50	–	–	C[C@H](Nc1ncnc2[nH]cnc12)c1oc2ccc(Br)cc2c(=O)c1-c1ccccc1 [Example 24, (S)-2-(1-(9H-purin-6-ylamino)ethyl)-6-bromo-3-phenyl-4H-chromen-4-one]
151 to 154	< 50	–	–	O=c1c(-c2ccccc2)c(CNc2ncnc3[nH]cnc23)oc2ccc(Br)cc12 [Example 25, 2-((9H-purin-6-ylamino)methyl)-6-bromo-3-phenyl-4H-chromen-4-one]
239 to 240	< 50	–	–	CC(c1oc2ccc(Br)cc2c(=O)c1-c1ccccc1)n1ncc2c(N)ncnc21 (stereo not drawn) [Example 26, 2-(1-(4-amino-1H-pyrazolo[3,4-d]pyrimidin-1-yl)ethyl)-6-bromo-3-phenyl-4H-chromen-4-one]
197 to 198	< 50	–	–	COc1ccc2oc(Cn3cnc4c(N)ncnc43)c(-c3ccccc3)c(=O)c2c1 [Example 27, 2-((6-Amino-9H-purin-9-yl)methyl)-6-methoxy-3-phenyl-4H-chromen-4-one]
–	–	50 to 100	–	COc1cc(-c2nn(C(C)c3oc4ccccc4c(=O)c3-c3cccc(F)c3)c3ncnc(N)c23)ccc1F (stereo not drawn) [Example 82, 2-(1-(4-amino-3-(4-fluoro-3-methoxyphenyl)-1H-pyrazolo[3,4-d]pyrimidin-1-yl)ethyl)-3-(3-fluorophenyl)-4H-chromen-4-one]
241 to 244	–	–	–	CC(c1oc2ccccc2c(=O)c1-c1cccc(F)c1)n1nc(-c2ccc(F)c(O)c2)c2c(N)ncnc21 (stereo not drawn) [Example 82a, 2-(1-(4-amino-3-(4-fluoro-3-hydroxyphenyl)-1H-pyrazolo[3,4-d]pyrimidin-1-yl)ethyl)-3-(3-fluorophenyl)-4H-chromen-4-one]
–	–	< 50	–	COc1cc(F)ccc1-c1nn(C(C)c2oc3ccccc3c(=O)c2-c2cccc(F)c2)c2ncnc(N)c12 (stereo not drawn) [Example 90, 2-(1-(4-amino-3-(4-fluoro-2-methoxyphenyl)-1H-pyrazolo[3,4-d]pyrimidin-1-yl)ethyl)-3-(3-fluorophenyl)-4H-chromen-4-one]
235 to 237	–	–	–	CC(c1oc2ccccc2c(=O)c1-c1cccc(F)c1)n1nc(-c2ccc(F)cc2O)c2c(N)ncnc21 (stereo not drawn) [Example 90a, 2-(1-(4-amino-3-(4-fluoro-2-hydroxyphenyl)-1H-pyrazolo[3,4-d]pyrimidin-1-yl)ethyl)-3-(3-fluorophenyl)-4H-chromen-4-one]
–	–	50 to 100	–	Cc1n[nH]c2cc(-c3nn(Cc4oc5ccccc5c(=O)c4-c4ccccc4)c4ncnc(N)c34)ccc12 [Example 92, 2-((4-amino-3-(3-methyl-1H-indazol-6-yl)-1H-pyrazolo[3,4-d]pyrimidin-1-yl)methyl)-3-phenyl-4H-chromen-4-one]
–	–	< 50	–	CC(c1oc2ccccc2c(=O)c1-c1cccc(F)c1)n1nc(-c2cc(F)c(O)c(F)c2)c2c(N)ncnc21 (stereo not drawn) [Example 126a, 2-(1-(4-amino-3-(3,5-difluoro-4-hydroxyphenyl)-1H-pyrazolo[3,4-d]pyrimidin-1-yl)ethyl)-3-(3-fluorophenyl)-4H-chromen-4-one]
–	–	50 to 100	< 250	CC(C)Oc1ccc(-c2nn(C(C)c3oc4ccccc4c(=O)c3-c3cccc(F)c3)c3ncnc(N)c23)cc1F (stereo not drawn) [Example 158, 2-(1-(4-amino-3-(3-fluoro-4-isopropoxyphenyl)-1H-pyrazolo[3,4-d]pyrimidin-1-yl)ethyl)-3-(3-fluorophenyl)-4H-chromen-4-one]
207 to 211	–	–	–	CC(c1oc2ccccc2c(=O)c1-c1cccc(F)c1)n1nc(-c2cncnc2)c2c(N)ncnc21 (stereo not drawn) [Example 160, 2-(1-(4-amino-3-(pyrimidin-5-yl)-1H-pyrazolo[3,4-d]pyrimidin-1-yl)ethyl)-3-(3-fluorophenyl)-4H-chromen-4-one]
–	–	< 50	–	CC(c1oc2ccccc2c(=O)c1-c1cccc(F)c1)n1nc(-c2cnn(C)c2)c2c(N)ncnc21 (stereo not drawn) [Example 164, 2-(1-(4-amino-3-(1-methyl-1H-pyrazol-4-yl)-1H-pyrazolo[3,4-d]pyrimidin-1-yl)ethyl)-3-(3-fluorophenyl)-4H-chromen-4-one]
286 to 290	–	–	–	CCOc1ccc2cc(-c3nn(C(C)c4oc5ccccc5c(=O)c4-c4cccc(F)c4)c4ncnc(N)c34)ccc2c1 (stereo not drawn) [Example 175, 2-(1-(4-amino-3-(6-ethoxynaphthalen-2-yl)-1H-pyrazolo[3,4-d]pyrimidin-1-yl)ethyl)-3-(3-fluorophenyl)-4H-chromen-4-one]

Source: patent US9421209B2, “Kinase modulators” (Rhizen Pharmaceuticals SA, priority 2009, dated 2016)
